Measurements as given in publication PMC7073229, “Novel Quinoline Compounds Active in Cancer Cells through Coupled DNA Methyltransferase Inhibition and Degradation” (Cancers, 2020).
Read-outs that look alike come from different tables or passages of the source.

Columns and labels:
[1] = test system: H1299 human non-small cell lung carcinoma; assay: Antiproliferative activity, MTT; assay type: cell-based; conditions: 48 h treatment, read-out: Antiproliferative Activity (IC50 ± SD) H1299
Protocol: (§1) U937 histiocytic lymphoma, HL60 acute promyelocytic leukemia, H1299 lung adenocarcinoma, MCF7 breast carcinoma, HT1080 fibrosarcoma, M14 melanoma, HeLa epithelial cervix carcinoma and peripheral blood B lymphocyte AHH1 human cell lines were obtained from the Deutsche Sammlung für Mikroorganismen and Zellkulturen (DSZM, Braunschweig, Germany) and were maintained in RPMI 1640 medium contained 10% fetal bovine serum (FBS), 2 mM L-glutamine, and antibiotics in a humidified atmosphere with 5% CO2 at 37 °C. HCT116 (ATCC, VA, USA) cells were propagated in Dulbecco’s modified Eagle medium (DMEM) (Euroclone, Milan, Italy) with 10% fetal bovine serum (FBS; Euroclone, Milan, Italy), 2 mM L-glutamine (Euroclone, Milan, Italy), and antibiotics (100 U/mL penicillin, 100 µg/mL streptomycin) (Euroclone, Milan, Italy). The experiments were performed with early (3–20) cell passages. Cell lines were treated with compounds at the indicated concentrations in the exponential growth phase.
(§2) Then, increasing concentrations of different compounds (ranging from 0.01 to 100 μM) were added, and cell proliferation was evaluated by a MTT assay after 48 h. Cells exposed to DMSO were used as control. The effect of compounds was evaluated using the CellTiter-Glo luminescent cell viability assay (Promega, Madison, WI, USA) according to the manufacturer’s instructions. For HCT116, 5 × 10^4 cells/well were plated in 24-well plate and treated, in duplicate, with compounds at several concentrations for 24 and 48 h of induction. After treatments, MTT solution was added for 3 h at 0.5 mg/mL, the obtained crystals were dissolved in DMSO (Sigma-Aldrich, Milan, Italy), and the absorbance was read at a wavelength of 570 nm with reader TECAN M-200. All the experiments were performed in triplicate and repeated at least three times.
(§3) IC50 values of compounds against cellular viability were determined by using nonlinear regression fitting curves with GraphPad Prism 8. The t-test used for statistical analyses was performed with GraphPad Prism 8. All the tests were one-tailed and a p-value < 0.05 was considered statistically significant.

[2] = test system: HeLa epithelial cervix carcinoma; assay: Antiproliferative activity, MTT; assay type: cell-based; conditions: Homo sapiens, 48 h treatment, read-out: Antiproliferative Activity (IC50 ± SD) HeLa
Protocol: as §1, §2, §3

U937 AML cells = assay: Antiproliferative activity, MTT; assay type: cell-based; conditions: Homo sapiens, U-937, 48 h treatment, read-out: Antiproliferative Activity (IC50 ± SD) U937
Protocol: as §1, §2, §3

F21T G-quadruplex DNA = assay: FRET melting assay, G-quadruplex DNA; assay type: binding
Protocol: (§4) Experimental procedure for Fluorescence Resonance Energy Transfer (FRET) melting assay Oligonucleotides labeled at 5’ with FAM (6-carboxyfluorescein) as donor fluorophore and TAMRA (6 - carboxytetramethylrhodamine) at 3’ as the acceptor fluorophore were purchased from STAB VIDA (Portugal). Each oligonucleotide was initial ly diluted to 100 µM in water (Molecular Biology Reagent, Sigma). Stock solutions of 20 µM and subsequent dilutions were made with FRET buffer (60 mM KCl, potassium cacodylate, pH 7.4). Tagged oligonucleotides at 0.4 µM were annealed by heating at 90 -95 °C for 10 min, followed by slow cooling to room temperature. St ock solutions of compounds (1 mM) were prepared in 10% DMSO. Subsequent dilutions were performed using FRET buffer. Annealed DNA (50 µL) and test compound solutions (50 µL) were distributed across 96-well RT-PCR plates (PCR-96-FLT-C, Axygen, Inc). Fluorescence readings (performed in a 7300 RT -PCR equipment from Applied Biosystems) were taken at intervals of 0.5 °C in the range 31 –95 °C, with the temperature being maintained for 30 seconds prior to each reading. Experiments were performed in triplicate. Fina l analysis of the data was carried out with GraphPad Prism v.5.0 (GraphPad Software Inc., La Jolla, CA, USA).
(§5) The advanced curve-fitting function in GraphPad Prism (nonlinear regression fit) was used for calculation of ΔTm values. Only results with fitting r2 values > 0.75 (std error < 0.25) were considered.
(§6) Table S2. Synthetic oligonucleotides used in FRET experiments.

KRAS21R G-quadruplex DNA = assay: FRET melting assay, G-quadruplex DNA; assay type: binding
Protocol: as §4, §5, §6

[3] = molecular target: T1, C-terminal catalytic domain of human DNMT3A (hDNMT3A) (Homo sapiens, UniProt Q9Y6K1); assay: DNMT3A restriction-based fluorescence assay; assay type: biochemical; conditions: for EC50: mean of at least two independent experiments, read-out: Enzyme Inhibition (EC50 ± SD) hDNMT3A
T1 construct: the C-terminal catalytic domain of human DNMT3A (hDNMT3A)
Protocol: DNMT3A enzyme inhibition was adapted from the restriction-based fluorescence assay protocol described in Ceccaldi et al.. Briefly, a biotin-labelled oligonucleotide at the 5’ end is hybridized to his complementary strand labelled at the 3’ end with 6-carboxyfluorescein. The DNA duplex containing only one single CpG site overlapping with a restriction site of a methylation sensitive restriction enzyme is transferred in the wells coated with avidin. The methylation reaction is performed by adding human C-terminal DNMT3A at the final concentration of 4 ng/µL in a total volume of 50 µL in the presence of the inhibitors at various concentrations and the co-substrate SAM at the final concentration of 20 µM. The plate was incubated for 1 h at 37 °C, washed, and added with the methylation sensitive restriction enzyme HpyCH4IV, incubated for 1 h further at 37 °C, washed and the fluorescence measured with a PerkinElmer Envision Multilabel Plate Reader. The data are expressed as percentage of inhibition vs. log concentration (M). Data are normalized referring to the “restriction control” (wells coated with labelled duplex not treated nor exposed to DNMT3A, but only cleaved by HpyCH4IV) as the maximum of inhibition (100%) and to the “DMSO control” (wells coated with labelled duplex but treated just with 0.1% DMSO exposed to DNMT3A and then to HpyCH4IV) as the minimum of inhibition (0%; total methylation).

U937 cells = assay: Sub-G1 peak, cell cycle flow cytometry; assay type: cell-based, human; conditions: U937, 1 µM; for effect on sub-G1 peaks vs untreated cells: 24 and 48 h
Protocol: Cell cycle analysis was performed on 5 × 10^5 fixed cells resuspended in a RNase A (3 mg/mL) and propidium iodide (PI) solution (1 mg/mL). Samples were analyzed with a C6 Accuri BD (Becton Dickinson & Co., San Jose, CA, USA). The percentage of apoptosis was measured analyzing sub-G1 peaks. Apoptotic cell death was also evaluated by using annexin V–fluorescein isothiocyanate (FITC) apoptosis kit (BD Bioscience) and assayed according to the manufacturer’s instructions. Cells double-stained for both annexin V and PI were analyzed by flow cytometry. PI was used in conjunction with annexin V–FITC to distinguish cells in the earlier stages of apoptosis (annexin V-FITC positive, PI negative) from those in later stages of apoptosis or that were already dead (annexin V–FITC positive, PI positive). Percentage of cells positive for caspase-3 activation was evaluated by Active Caspase-3 Apoptosis Kit (BD biosciences, Milan, Italy) according to the manufacturer’s instructions.

T1 sequence (Q9Y6K1 634-912 limits assumed): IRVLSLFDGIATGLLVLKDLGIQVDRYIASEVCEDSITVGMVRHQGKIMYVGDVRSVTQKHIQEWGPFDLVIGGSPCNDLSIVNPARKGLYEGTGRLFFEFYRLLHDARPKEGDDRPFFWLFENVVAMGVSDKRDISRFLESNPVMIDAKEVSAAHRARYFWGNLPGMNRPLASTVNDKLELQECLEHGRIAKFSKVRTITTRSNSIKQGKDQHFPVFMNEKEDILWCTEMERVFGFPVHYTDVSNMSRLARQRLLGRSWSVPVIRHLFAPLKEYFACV

O=C(Nc1cccc(Nc2ccnc3ccccc23)c1)c1cccc(Nc2ccnc3ccccc23)c1 [Compound 2b]
IC50 ([1]; Homo sapiens, NCI-H1299, 48 h): 5.3 ± 0.9 µM
IC50 [2]: 2 ± 0.3 µM
IC50 (U937 AML cells): 1.5 ± 0.1 µM
F21T ∆Tm (F21T G-quadruplex DNA; 5 µM): 2.8 ºC
F21T ∆Tm (F21T G-quadruplex DNA; 10 µM): 5.0 ºC
KRAS ∆Tm (KRAS21R G-quadruplex DNA; 5 µM): 1.0 ºC
KRAS ∆Tm (KRAS21R G-quadruplex DNA; 10 µM): 7.7 ºC

O=C(Nc1ccc(NC(=O)c2cccc(Nc3ccnc4ccccc34)c2)cc1)OCc1ccccc1 [Compound 4a]
EC50 [3]: > 32 µM
effect on sub-G1 peaks vs untreated cells (U937 cells): very low
IC50 ([1]; Homo sapiens, NCI-H1299, 48 h): 45 ± 4.1 µM
IC50 [2]: 77 ± 7.9 µM
IC50 (U937 AML cells): 0.5 ± 0.08 µM
F21T ∆Tm (F21T G-quadruplex DNA; 5 µM): 0 ºC
F21T ∆Tm (F21T G-quadruplex DNA; 10 µM): 4.3 ºC
KRAS ∆Tm (KRAS21R G-quadruplex DNA; 5 µM): 2.5 ºC
KRAS ∆Tm (KRAS21R G-quadruplex DNA; 10 µM): 4.6 ºC

O=C(Nc1cccc(Nc2ccnc3ccccc23)c1)c1ccc(Nc2ccnc3ccccc23)cc1 [Compound 2c]
EC50 [3]: 5.6 ± 1 µM
IC50 ([1]; Homo sapiens, NCI-H1299, 48 h): 14 ± 1.8 µM
IC50 [2]: 4.2 ± 0.8 µM
IC50 (U937 AML cells): 1.5 ± 0.1 µM
F21T ∆Tm (F21T G-quadruplex DNA; 5 µM): 1 ºC
F21T ∆Tm (F21T G-quadruplex DNA; 10 µM): 1.2 ºC
KRAS ∆Tm (KRAS21R G-quadruplex DNA; 5 µM): 0 ºC
KRAS ∆Tm (KRAS21R G-quadruplex DNA; 10 µM): 3.4 ºC

O=C(Nc1ccc(Nc2ccnc3ccccc23)cc1)c1cccc(Nc2ccnc3ccccc23)c1 [Compound 2a]
EC50 [3]: 6 ± 1 µM
percentage of sub-G1 peak (U937 cells; 48 h): 62%
IC50 [1]: 14.7 ± 2.3 µM
IC50 ([1]; Homo sapiens, NCI-H1299, 48 h): 15 µM
IC50 [2]: 0.14 ± 0.04 µM
IC50 (U937 AML cells): 0.7 ± 0.09 µM
F21T ∆Tm (F21T G-quadruplex DNA; 5 µM): 0 ºC
F21T ∆Tm (F21T G-quadruplex DNA; 10 µM): 5.1 ºC
KRAS ∆Tm (KRAS21R G-quadruplex DNA; 5 µM): 0 ºC
KRAS ∆Tm (KRAS21R G-quadruplex DNA; 10 µM): 6.4 ºC

O=C(Nc1cccc(NC(=O)c2ccc(Nc3ccnc4ccccc34)cc2)c1)OCc1ccccc1 [Compound 4c]
EC50 [3]: 6.1 ± 1 µM
fold more potent than 4 against hDNMT3A ([3]; ratio of EC50 values vs 4): 3 fold
effect on sub-G1 peaks vs untreated cells (U937 cells): no
IC50 ([1]; Homo sapiens, NCI-H1299, 48 h): 6.9 ± 0.9 µM
IC50 [2]: 7.4 ± 1.2 µM
IC50 (U937 AML cells): 1.2 ± 0.2 µM
F21T ∆Tm (F21T G-quadruplex DNA; 5 µM): 0.8 ºC
F21T ∆Tm (F21T G-quadruplex DNA; 10 µM): 1.5 ºC
KRAS ∆Tm (KRAS21R G-quadruplex DNA; 5 µM): 1.0 ºC
KRAS ∆Tm (KRAS21R G-quadruplex DNA; 10 µM): 2.6 ºC
